Measured values: US20210122730A1, “GLUCOCORTICOID RECEPTOR MODULATORS” (ORIC Pharmaceuticals, Inc., priority 2017, published 2021)

Target: T1, GR (Homo sapiens, UniProt P04150)
T1 construct: expressed in transfected cells; host or cells: CHO-K1
T1 sequence (P04150 1-777): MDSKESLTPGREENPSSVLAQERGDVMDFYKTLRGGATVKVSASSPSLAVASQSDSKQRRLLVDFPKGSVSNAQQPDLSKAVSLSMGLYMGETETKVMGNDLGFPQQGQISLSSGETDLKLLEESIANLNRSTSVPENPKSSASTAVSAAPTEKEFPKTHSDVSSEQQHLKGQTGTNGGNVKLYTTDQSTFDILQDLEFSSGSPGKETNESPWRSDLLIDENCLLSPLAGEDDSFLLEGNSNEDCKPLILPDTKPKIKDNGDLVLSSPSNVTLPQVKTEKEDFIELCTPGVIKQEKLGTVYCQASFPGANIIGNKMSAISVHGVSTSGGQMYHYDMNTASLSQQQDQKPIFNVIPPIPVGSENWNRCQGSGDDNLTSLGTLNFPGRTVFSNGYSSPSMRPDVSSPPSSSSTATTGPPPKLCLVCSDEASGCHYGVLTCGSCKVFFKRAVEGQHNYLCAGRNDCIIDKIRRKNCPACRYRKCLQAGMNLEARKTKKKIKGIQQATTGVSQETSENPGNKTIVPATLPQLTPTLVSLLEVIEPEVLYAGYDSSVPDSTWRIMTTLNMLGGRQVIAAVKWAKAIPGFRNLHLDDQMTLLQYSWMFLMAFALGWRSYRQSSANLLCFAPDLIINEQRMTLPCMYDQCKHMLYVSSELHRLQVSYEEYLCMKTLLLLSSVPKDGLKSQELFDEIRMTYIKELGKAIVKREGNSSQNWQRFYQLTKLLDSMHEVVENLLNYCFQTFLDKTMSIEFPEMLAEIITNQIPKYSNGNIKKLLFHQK
Experiment: In Vitro GR Luciferase Reporter Assay (antagonist mode, CHO-K1-GR-MMTV-Luc reporter cells)
Type: cell-based
Details: antagonist assay with 10 nM Dexamethasone, 18-24 hours
In short: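 Antagonist mode: compounds (8 serial 1:5 dilutions) added to GR-MMTV-luciferase CHO-K1 reporter cells co-exposed to 10 nM dexamethasone final, in phenol red-free DMEM plus 10% CSS. After roughly 18-24 h at 37° C, OneGlo luminescence read and IC50 calculated.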

Row | Structure (SMILES) | IC50
1 | COc1ccc(C(=O)[C@]23Cc4cnn(-c5ccc(F)cc5)c4C=C2CC[C@H](S(=O)(=O)c2ccccn2)C3)nc1 [Example 61, ((4aS,6S)-1-(4-fluorophenyl)-6-(pyridin-2-ylsulfonyl)-1,4,5,6,7,8-hexahydro-4aH-benzo[f]indazol-4a-yl)(5-methoxypyridin-2-yl)methanone] | ≤ 100 nM
2 | O=C(c1ccc(C2CC2)cn1)[C@]12Cc3cnn(-c4ccc(F)cc4)c3C=C1CC[C@H](S(=O)(=O)C1CCOCC1)C2 [Example 62, (5-cyclopropylpyridin-2-yl)((4aS,6S)-1-(4-fluorophenyl)-6-((tetrahydro-2H-pyran-4-yl)sulfonyl)-1,4,5,6,7,8-hexahydro-4aH-benzo[f]indazol-4a-yl)methanone] | ≤ 100 nM
3 | CC(C)S(=O)(=O)[C@H]1CCC2=Cc3c(cnn3-c3ccc(F)cc3)C[C@]2(C(=O)c2ccccn2)C1 [Example 63, ((4aS,6S)-1-(4-fluorophenyl)-6-(isopropylsulfonyl)-1,4,5,6,7,8-hexahydro-4aH-benzo[f]indazol-4a-yl)(pyridin-2-yl)methanone] | ≤ 100 nM
4 | O=C(c1cc(C(F)(F)F)ccn1)[C@]12Cc3cnn(-c4ccc(F)cc4)c3C=C1CC[C@H](S(=O)(=O)c1ccc(F)cc1)C2 [Example 64, ((4aS,6S)-1-(4-fluorophenyl)-6-((4-fluorophenyl)sulfonyl)-1,4,5,6,7,8-hexahydro-4aH-benzo[f]indazol-4a-yl)(4-(trifluoromethyl)pyridin-2-yl)methanone] | ≤ 100 nM
5 | O=C(c1ccccn1)[C@]12Cc3cnn(-c4ccc(F)cc4)c3C=C1CC[C@H](S(=O)(=O)C1CCC(F)(F)CC1)C2 [Example 65, ((4aS,6S)-6-((4,4-difluorocyclohexyl)sulfonyl)-1-(4-fluorophenyl)-1,4,5,6,7,8-hexahydro-4aH-benzo[f]indazol-4a-yl)(pyridin-2-yl)methanone] | ≤ 100 nM
6 | Cn1cc(S(=O)(=O)[C@H]2CCC3=Cc4c(cnn4-c4ccc(F)cc4)C[C@]3(C(=O)c3ccc(OC(F)(F)F)cn3)C2)cn1 [Example 66, ((4aS,6S)-1-(4-fluorophenyl)-6-((1-methyl-1H-pyrazol-4-yl)sulfonyl)-1,4,5,6,7,8-hexahydro-4aH-benzo[f]indazol-4a-yl)(5-(trifluoromethoxy)pyridin-2-yl)methanone] | ≤ 100 nM
7 | O=C(c1ccccn1)[C@]12Cc3cnn(-c4ccc(F)cc4)c3C=C1CC[C@H](S(=O)(=O)C1CCC1)C2 [Example 67, ((4aS,6S)-6-(cyclobutylsulfonyl)-1-(4-fluorophenyl)-1,4,5,6,7,8-hexahydro-4aH-benzo[f]indazol-4a-yl)(pyridin-2-yl)methanone] | ≤ 100 nM
8 | O=C(c1ccc(F)cn1)[C@]12Cc3cnn(-c4ccc(F)cc4)c3C=C1CC[C@H](S(=O)(=O)c1ccccn1)C2 [Example 68, ((4aS,6S)-1-(4-fluorophenyl)-6-(pyridin-2-ylsulfonyl)-1,4,5,6,7,8-hexahydro-4aH-benzo[f]indazol-4a-yl)(5-fluoropyridin-2-yl)methanone] | ≤ 100 nM
9 | O=C(c1ccc(C(F)(F)F)cn1)[C@]12Cc3cnn(-c4ccc(F)cc4)c3C=C1CC[C@H](S(=O)(=O)C1CCOCC1)C2 [Example 70, ((4aS,6S)-1-(4-fluorophenyl)-6-((tetrahydro-2H-pyran-4-yl)sulfonyl)-1,4,5,6,7,8-hexahydro-4aH-benzo[f]indazol-4a-yl)(5-(trifluoromethyl)pyridin-2-yl)methanone] | ≤ 100 nM
10 | O=C(c1cc(C(F)(F)F)ccn1)[C@]12Cc3cnn(-c4ccc(F)cc4)c3C=C1CC[C@H](S(=O)(=O)c1cnn(C3CC3)c1)C2 [Example 71, ((4aS,6S)-6-((1-cyclopropyl-1H-pyrazol-4-yl)sulfonyl)-1-(4-fluorophenyl)-1,4,5,6,7,8-hexahydro-4aH-benzo[f]indazol-4a-yl)(4-(trifluoromethyl)pyridin-2-yl)methanone] | ≤ 100 nM
11 | Cn1cc(S(=O)(=O)[C@H]2CCC3=Cc4c(cnn4-c4ccc(F)cc4)C[C@]3(C(=O)c3ccc(C4CC4)cn3)C2)cn1 [Example 72, (5-cyclopropylpyridin-2-yl)((4aS,6S)-1-(4-fluorophenyl)-6-((1-methyl-1H-pyrazol-4-yl)sulfonyl)-1,4,5,6,7,8-hexahydro-4aH-benzo[f]indazol-4a-yl)methanone] | ≤ 100 nM
12 | O=C(c1cc(C(F)(F)F)ccn1)[C@]12Cc3cnn(-c4ccc(F)cc4)c3C=C1CC[C@H](S(=O)(=O)c1cnn(C3CC3)n1)C2 [Example 73, ((4aS,6S)-6-((2-cyclopropyl-2H-1,2,3-triazol-4-yl)sulfonyl)-1-(4-fluorophenyl)-1,4,5,6,7,8-hexahydro-4aH-benzo[f]indazol-4a-yl)(4-(trifluoromethyl)pyridin-2-yl)methanone] | ≤ 100 nM
13 | O=C(c1ccc(Cl)cn1)[C@]12Cc3cnn(-c4ccc(F)cc4)c3C=C1CC[C@H](S(=O)(=O)c1ccccn1)C2 [Example 74, (5-chloropyridin-2-yl)((4aS,6S)-1-(4-fluorophenyl)-6-(pyridin-2-ylsulfonyl)-1,4,5,6,7,8-hexahydro-4aH-benzo[f]indazol-4a-yl)methanone] | ≤ 100 nM
14 | O=C(c1cc(C(F)(F)F)ccn1)[C@]12Cc3cnn(-c4ccc(F)cc4)c3C=C1CC[C@H](S(=O)(=O)c1cnn(CC(F)(F)F)c1)C2 [Example 75, ((4aS,6S)-1-(4-fluorophenyl)-6-((1-(2,2,2-trifluoroethyl)-1H-pyrazol-4-yl)sulfonyl)-1,4,5,6,7,8-hexahydro-4aH-benzo[f]indazol-4a-yl)(4-(trifluoromethyl)pyridin-2-yl)methanone] | ≤ 100 nM
15 | CCn1cc(S(=O)(=O)[C@H]2CCC3=Cc4c(cnn4-c4ccc(F)cc4)C[C@]3(C(=O)c3cc(C(F)(F)F)ccn3)C2)cn1 [Example 76, ((4aS,6S)-6-((1-ethyl-1H-pyrazol-4-yl)sulfonyl)-1-(4-fluorophenyl)-1,4,5,6,7,8-hexahydro-4aH-benzo[f]indazol-4a-yl)(4-(trifluoromethyl)pyridin-2-yl)methanone] | ≤ 100 nM
16 | CCn1ncc(S(=O)(=O)[C@H]2CCC3=Cc4c(cnn4-c4ccc(F)cc4)C[C@]3(C(=O)c3ccc(C(F)(F)F)cn3)C2)n1 [Example 77, ((4aS,6S)-6-((2-ethyl-2H-1,2,3-triazol-4-yl)sulfonyl)-1-(4-fluorophenyl)-1,4,5,6,7,8-hexahydro-4aH-benzo[f]indazol-4a-yl)(5-(trifluoromethyl)pyridin-2-yl)methanone] | ≤ 100 nM
17 | CN([C@H]1CCC2=Cc3c(cnn3-c3ccc(F)cc3)C[C@]2(C(=O)c2ccc(C3CC3)cn2)C1)S(=O)(=O)c1cnn(C)n1 [Example 78, N-((4aS,6S)-4a-(5-cyclopropylpicolinoyl)-1-(4-fluorophenyl)-4,4a,5,6,7,8-hexahydro-1H-benzo[f]indazol-6-yl)-N,2-dimethyl-2H-1,2,3-triazole-4-sulfonamide] | ≤ 100 nM
18 | O=C(c1cc(C(F)(F)F)ccn1)[C@]12Cc3cnn(-c4ccc(F)cc4)c3C=C1CC[C@H](S(=O)(=O)c1cnn(CC3CC3)n1)C2 [Example 79, ((4aS,6S)-6-((2-(cyclopropylmethyl)-2H-1,2,3-triazol-4-yl)sulfonyl)-1-(4-fluorophenyl)-1,4,5,6,7,8-hexahydro-4aH-benzo[f]indazol-4a-yl)(4-(trifluoromethyl)pyridin-2-yl)methanone] | ≤ 100 nM
19 | CN([C@H]1CCC2=Cc3c(cnn3-c3ccc(F)cc3)C[C@]2(C(=O)c2ccccn2)C1)S(=O)(=O)c1ccccc1 [Example 80, N-((4aS,6S)-1-(4-fluorophenyl)-4a-picolinoyl-4,4a,5,6,7,8-hexahydro-1H-benzo[f]indazol-6-yl)-N-methylbenzenesulfonamide] | ≤ 100 nM
20 | CN([C@H]1CCC2=Cc3c(cnn3-c3ccc(F)cc3)C[C@]2(C(=O)c2ccccn2)C1)S(=O)(=O)c1cccc(Cl)c1 [Example 82, 3-chloro-N-((4aS,6S)-1-(4-fluorophenyl)-4a-picolinoyl-4,4a,5,6,7,8-hexahydro-1H-benzo[f]indazol-6-yl)-N-methylbenzenesulfonamide] | ≤ 100 nM
21 | CN([C@H]1CCC2=Cc3c(cnn3-c3ccc(F)cc3)C[C@]2(C(=O)c2ccccn2)C1)S(=O)(=O)c1cccc(C(F)(F)F)c1 [Example 83, N-((4aS,6S)-1-(4-fluorophenyl)-4a-picolinoyl-4,4a,5,6,7,8-hexahydro-1H-benzo[f]indazol-6-yl)-N-methyl-3-(trifluoromethyl)benzenesulfonamide] | ≤ 100 nM
22 | CN([C@H]1CCC2=Cc3c(cnn3-c3ccc(F)cc3)C[C@]2(C(=O)c2ccccn2)C1)S(=O)(=O)c1cccnc1 [Example 84, N-((4aS,6S)-1-(4-fluorophenyl)-4a-picolinoyl-4,4a,5,6,7,8-hexahydro-1H-benzo[f]indazol-6-yl)-N-methylpyridine-3-sulfonamide] | ≤ 100 nM
